# Experimental data: patent publication US20140005163A1 (NOVARTIS AG, priority 2010, published 2014)
# Assays:
# [1] = Cellular CaCo2 permeability assay from apical to basal (A-B); type: in vitro ADME; details: human, Caco-2, read-out: Pe A-B (permeability)
# Excerpt: The permeability in 10^−6 cm/s of compounds of formula (I) have been confirmed for selected example using a cellular CaCo2 permeability assay from apical to basal (A-B): […]
# PI3K alpha = target: T1, PI3K alpha (Homo sapiens, UniProt P42336); assay: PI3K alpha kinase assay (Kinase-Glo luminescence); type: biochemical
# T1 construct: p85(iSH2) fusion partner (see partner chain) (N); His tag (C); made in house; host or cells: baculovirus; Tn5 (Trichoplusia ni) or TiniPro insect cells
# Outline: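 Enzyme 10 nM PI3Kα EMV B1075; ATP 1 μM; PI 10 μg/mL; Tris-HCl pH 7.5 10 mM, MgCl2 3 mM, NaCl 50 mM, CHAPS 0.05%, DTT 1 mM; 60 min RT; Kinase-Glo luminescence; 4-parameter IC50 fit, 8 concentrations, single points.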
# PI3K beta = target: T2, PI3K beta (Homo sapiens, UniProt P42338); assay: PI3K beta kinase assay (Kinase-Glo luminescence); type: biochemical
# T2 construct: for the full-length p110-b subunit are generated and fused by overlapping PCR; p85(iSH2) fusion partner (see partner chain) (N); His tag (C); made in house; host or cells: baculovirus; Tn5 (Trichoplusia ni) or TiniPro insect cells
# Outline: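 IC50 is derived by four-parameter logistic curve fitting of Kinase-Glo luminescence, which measures ATP left after a 60 min room-temperature reaction. Conditions are 25 nM His-tagged p85(iSH2)-p110β, 1 μM ATP and 10 μg/mL bovine liver phosphatidylinositol.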
# PI3K delta = target: T3, PI3K delta (Homo sapiens, UniProt O00329); assay: PI3K delta kinase assay (Kinase-Glo luminescence); type: biochemical
# T3 construct: for the full-length p110-d subunit are generated and fused by overlapping PCR; p85(iSH2) fusion partner (see partner chain) (N); His tag (C); made in house; host or cells: baculovirus; Tn5 (Trichoplusia ni) or TiniPro insect cells
# Outline: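 Lipid kinase activity of a His-tagged p110δ full-length/p85 iSH2 fusion (10 nM) toward bovine liver phosphatidylinositol (10 μg/mL) at 1 μM ATP, pH 7.5, 60 min, room temperature. ATP consumption is quantified by luciferase-based luminescence. Four-parameter logistic fitting gives IC50.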
# PI3K gamma = target: T4, PI3K gamma (Homo sapiens, UniProt P48736); assay: PI3K gamma kinase assay (Kinase-Glo luminescence); type: biochemical
# T4 construct: His tag (C); made in house; host or cells: baculovirus (pVL1393); Tn5 or TiniPro insect cells; construct from Roger Williams lab, MRC LMB
# Outline: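 PI3Kγ (150 nM) reaction run 120 min at room temperature with phosphatidylinositol substrate (10 μg/mL) and ATP (1 μM) in Tris pH 7.5 buffer containing MgCl2, NaCl, CHAPS and DTT. Remaining ATP detected by Kinase-Glo luminescence; 8 concentrations per compound, IC50 from 4-parameter curve fitting.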
# T2 sequence (P42338 with tags, fused parts or gaps limits assumed): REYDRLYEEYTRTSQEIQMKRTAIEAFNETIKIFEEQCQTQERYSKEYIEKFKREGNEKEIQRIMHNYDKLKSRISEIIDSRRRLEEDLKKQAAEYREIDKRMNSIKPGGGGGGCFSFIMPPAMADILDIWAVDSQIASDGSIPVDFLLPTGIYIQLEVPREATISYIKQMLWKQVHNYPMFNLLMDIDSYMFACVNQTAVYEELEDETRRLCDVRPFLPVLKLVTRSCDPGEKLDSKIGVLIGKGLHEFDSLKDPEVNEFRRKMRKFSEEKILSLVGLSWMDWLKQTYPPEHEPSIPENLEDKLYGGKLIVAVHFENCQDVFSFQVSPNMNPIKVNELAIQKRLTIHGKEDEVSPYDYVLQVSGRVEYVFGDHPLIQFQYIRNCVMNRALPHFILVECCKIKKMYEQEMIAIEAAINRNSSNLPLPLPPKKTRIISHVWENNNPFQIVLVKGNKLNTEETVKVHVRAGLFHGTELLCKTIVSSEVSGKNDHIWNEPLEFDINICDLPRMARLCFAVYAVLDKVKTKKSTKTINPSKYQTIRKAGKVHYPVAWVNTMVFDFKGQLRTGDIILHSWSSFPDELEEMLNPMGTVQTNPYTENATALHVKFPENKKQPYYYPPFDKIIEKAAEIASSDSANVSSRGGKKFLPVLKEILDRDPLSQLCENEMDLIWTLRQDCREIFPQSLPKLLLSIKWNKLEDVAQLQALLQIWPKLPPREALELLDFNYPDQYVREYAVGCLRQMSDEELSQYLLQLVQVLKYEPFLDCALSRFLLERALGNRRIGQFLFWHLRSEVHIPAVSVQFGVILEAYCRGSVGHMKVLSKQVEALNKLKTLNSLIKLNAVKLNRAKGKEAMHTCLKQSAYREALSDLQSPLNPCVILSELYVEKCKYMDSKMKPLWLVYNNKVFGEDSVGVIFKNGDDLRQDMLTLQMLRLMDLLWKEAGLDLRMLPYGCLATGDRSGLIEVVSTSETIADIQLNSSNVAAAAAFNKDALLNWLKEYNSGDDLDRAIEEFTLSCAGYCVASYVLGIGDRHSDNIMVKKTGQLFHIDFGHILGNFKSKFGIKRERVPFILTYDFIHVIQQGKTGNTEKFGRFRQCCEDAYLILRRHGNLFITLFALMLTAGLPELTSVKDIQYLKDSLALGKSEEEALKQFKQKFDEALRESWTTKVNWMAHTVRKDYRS
# T3 sequence (O00329 with tags, fused parts or gaps limits assumed): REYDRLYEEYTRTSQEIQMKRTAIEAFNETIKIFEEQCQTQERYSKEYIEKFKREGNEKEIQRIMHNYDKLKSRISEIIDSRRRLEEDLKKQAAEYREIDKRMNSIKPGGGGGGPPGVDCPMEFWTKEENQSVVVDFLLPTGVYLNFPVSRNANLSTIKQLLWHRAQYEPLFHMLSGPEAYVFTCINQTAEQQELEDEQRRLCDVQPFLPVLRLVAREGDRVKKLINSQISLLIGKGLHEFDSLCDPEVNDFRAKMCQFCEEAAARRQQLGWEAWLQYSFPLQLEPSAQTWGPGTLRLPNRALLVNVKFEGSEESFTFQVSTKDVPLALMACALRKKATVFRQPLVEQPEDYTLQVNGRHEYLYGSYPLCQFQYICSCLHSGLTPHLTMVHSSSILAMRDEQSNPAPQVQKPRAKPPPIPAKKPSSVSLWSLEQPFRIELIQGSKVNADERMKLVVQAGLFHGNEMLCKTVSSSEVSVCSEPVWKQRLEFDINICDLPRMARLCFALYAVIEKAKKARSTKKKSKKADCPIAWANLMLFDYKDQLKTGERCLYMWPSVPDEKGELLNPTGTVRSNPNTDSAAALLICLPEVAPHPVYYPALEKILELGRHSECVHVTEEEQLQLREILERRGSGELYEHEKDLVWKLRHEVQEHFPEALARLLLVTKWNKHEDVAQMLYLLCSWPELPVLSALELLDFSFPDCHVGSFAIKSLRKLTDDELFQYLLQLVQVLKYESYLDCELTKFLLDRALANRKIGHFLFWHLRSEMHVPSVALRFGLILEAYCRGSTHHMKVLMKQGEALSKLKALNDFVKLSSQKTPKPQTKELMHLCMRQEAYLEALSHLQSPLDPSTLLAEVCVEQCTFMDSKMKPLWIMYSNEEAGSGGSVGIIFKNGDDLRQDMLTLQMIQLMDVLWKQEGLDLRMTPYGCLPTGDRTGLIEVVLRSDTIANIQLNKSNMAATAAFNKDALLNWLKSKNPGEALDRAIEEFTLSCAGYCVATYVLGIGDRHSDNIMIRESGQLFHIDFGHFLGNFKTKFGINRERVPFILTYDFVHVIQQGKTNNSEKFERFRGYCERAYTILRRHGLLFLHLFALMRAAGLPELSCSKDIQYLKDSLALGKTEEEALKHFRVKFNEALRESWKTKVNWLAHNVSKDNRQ
# T1 sequence (P42336 with tags, fused parts or gaps limits assumed): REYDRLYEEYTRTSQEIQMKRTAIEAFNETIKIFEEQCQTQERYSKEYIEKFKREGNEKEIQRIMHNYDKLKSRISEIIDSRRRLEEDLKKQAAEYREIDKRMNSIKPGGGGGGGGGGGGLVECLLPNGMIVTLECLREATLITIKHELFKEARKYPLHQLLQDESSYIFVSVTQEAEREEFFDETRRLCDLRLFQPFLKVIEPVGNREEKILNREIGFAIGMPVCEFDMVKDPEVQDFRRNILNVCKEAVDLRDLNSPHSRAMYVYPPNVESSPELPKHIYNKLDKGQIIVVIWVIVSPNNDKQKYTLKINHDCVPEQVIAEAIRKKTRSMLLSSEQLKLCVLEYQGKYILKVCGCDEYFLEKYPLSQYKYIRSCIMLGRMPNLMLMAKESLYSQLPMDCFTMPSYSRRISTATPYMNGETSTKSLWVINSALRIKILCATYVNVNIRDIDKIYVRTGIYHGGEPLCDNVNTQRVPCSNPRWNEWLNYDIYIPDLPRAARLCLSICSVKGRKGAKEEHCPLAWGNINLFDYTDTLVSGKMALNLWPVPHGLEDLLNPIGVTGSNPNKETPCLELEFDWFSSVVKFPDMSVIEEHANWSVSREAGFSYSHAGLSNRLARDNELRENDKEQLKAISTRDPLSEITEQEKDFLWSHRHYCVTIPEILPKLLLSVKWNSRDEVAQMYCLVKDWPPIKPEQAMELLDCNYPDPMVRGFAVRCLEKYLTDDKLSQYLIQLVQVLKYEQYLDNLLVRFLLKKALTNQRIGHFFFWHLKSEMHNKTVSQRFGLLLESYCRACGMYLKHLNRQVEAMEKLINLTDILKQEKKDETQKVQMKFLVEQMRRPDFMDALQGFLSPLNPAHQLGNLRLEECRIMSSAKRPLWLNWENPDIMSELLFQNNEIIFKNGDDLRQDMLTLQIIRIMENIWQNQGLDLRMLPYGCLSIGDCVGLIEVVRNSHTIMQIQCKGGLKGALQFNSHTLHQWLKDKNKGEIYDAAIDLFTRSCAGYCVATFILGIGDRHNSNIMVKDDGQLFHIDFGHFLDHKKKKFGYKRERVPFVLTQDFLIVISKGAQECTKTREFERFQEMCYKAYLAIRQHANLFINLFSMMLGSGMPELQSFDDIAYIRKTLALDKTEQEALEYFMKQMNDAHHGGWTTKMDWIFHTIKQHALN
# T4 sequence (P48736 144-1102 limits assumed): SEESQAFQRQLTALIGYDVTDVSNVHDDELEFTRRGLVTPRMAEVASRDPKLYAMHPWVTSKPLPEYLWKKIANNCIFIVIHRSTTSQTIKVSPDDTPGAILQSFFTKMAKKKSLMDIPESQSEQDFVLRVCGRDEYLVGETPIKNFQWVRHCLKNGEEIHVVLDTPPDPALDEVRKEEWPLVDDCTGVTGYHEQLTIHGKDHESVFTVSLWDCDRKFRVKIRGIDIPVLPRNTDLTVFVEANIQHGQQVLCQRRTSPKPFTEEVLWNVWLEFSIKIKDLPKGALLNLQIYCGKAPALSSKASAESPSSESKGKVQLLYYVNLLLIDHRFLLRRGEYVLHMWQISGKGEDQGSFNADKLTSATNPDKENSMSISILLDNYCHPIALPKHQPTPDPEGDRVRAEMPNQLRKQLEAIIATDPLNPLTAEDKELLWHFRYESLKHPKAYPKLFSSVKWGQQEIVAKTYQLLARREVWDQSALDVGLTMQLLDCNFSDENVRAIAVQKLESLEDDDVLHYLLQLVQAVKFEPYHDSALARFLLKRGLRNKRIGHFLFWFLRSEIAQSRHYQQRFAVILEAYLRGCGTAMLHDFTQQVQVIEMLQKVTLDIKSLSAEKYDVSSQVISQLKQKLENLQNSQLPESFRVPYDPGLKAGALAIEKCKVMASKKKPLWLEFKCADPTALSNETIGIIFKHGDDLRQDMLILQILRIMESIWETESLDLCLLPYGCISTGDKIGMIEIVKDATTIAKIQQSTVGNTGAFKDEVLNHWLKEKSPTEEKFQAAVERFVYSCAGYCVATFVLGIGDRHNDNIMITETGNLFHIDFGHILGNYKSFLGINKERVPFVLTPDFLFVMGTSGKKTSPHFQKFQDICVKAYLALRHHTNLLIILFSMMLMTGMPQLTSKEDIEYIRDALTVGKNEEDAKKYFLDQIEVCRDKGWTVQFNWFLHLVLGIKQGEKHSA
Papp A→B [1],IC50 (PI3K alpha),IC50 (PI3K beta),IC50 (PI3K delta),IC50 (PI3K gamma),Structure (SMILES)
28.6 ×10⁻⁶ cm/s,21 nM,192 nM,37 nM,246 nM,"CCOc1ccc(-c2ccc3ncc4c(c3c2)n(-c2cn(C)nc2C)c(=O)n4C)cn1 [Example 3.1, 1-(1,3-Dimethyl-1H-pyrazol-4-yl)-8-(6-ethoxy-pyridin-3-yl)-3-methyl-1,3-dihydro-imidazo[4,5-c]quinolin-2-one]"
26.6 ×10⁻⁶ cm/s,22 nM,185 nM,32 nM,319 nM,"Cc1nn(C)cc1-n1c(=O)n(C)c2cnc3ccc(-c4cnc(N(C)C)nc4)cc3c21 [Example 6.2, 8-(2-Dimethylamino-pyrimidin-5-yl)-1-(1,3-dimethyl-1H-pyrazol-4-yl)-3-methyl-1,3-dihydro-imidazo[4,5-c]quinolin-2-one]"
24 ×10⁻⁶ cm/s,8 nM,21 nM,31 nM,92 nM,"COc1cncc(-c2ccc3ncc4c(c3c2)n(-c2cn(C)nc2C)c(=O)n4C)c1 [Example 12, 1-(1,3-Dimethyl-1H-pyrazol-4-yl)-8-(5-methoxy-pyridin-3-yl)-3-methyl-1,3-dihydro-imidazo[4,5-c]quinolin-2-one]"
33.5 ×10⁻⁶ cm/s,30 nM,51 nM,20 nM,,"COCc1cncc(-c2ccc3ncc4c(c3c2)n(-c2cn(C)nc2Cl)c(=O)n4C)c1 [Example 54.2, 1-(3-Chloro-1-methyl-1H-pyrazol-4-yl)-8-(5-methoxymethyl-pyridin-3-yl)-3-methyl-1,3-dihydro-imidazo[4,5-c]quinolin-2-one]"
39.7 ×10⁻⁶ cm/s,4 nM,6 nM,6 nM,123 nM,"CCOc1cncc(-c2ccc3ncc4c(c3c2)n(-c2cn(C)nc2C)c(=O)n4C)c1 [Example 56.1, 1-(1,3-Dimethyl-1H-pyrazol-4-yl)-8-(5-ethoxy-pyridin-3-yl)-3-methyl-1,3-dihydro-imidazo[4,5-c]quinolin-2-one]"
17 ×10⁻⁶ cm/s,25 nM,,214 nM,,"CCOc1ccc(-c2ccc3ncc4c(c3c2)n(-c2cn(CC(=O)N(C)CC)nc2C)c(=O)n4C)cn1 [Example 136, 2-{4-[8-(6-Ethoxy-pyridin-3-yl)-3-methyl-2-oxo-2,3-dihydro-imidazo[4,5-c]quinolin-1-yl]-3-methyl-pyrazol-1-yl}-N-ethyl-N-methyl-acetamide]"
29.1 ×10⁻⁶ cm/s,14 nM,45 nM,16 nM,,"CNc1ncc(-c2ccc3ncc4c(c3c2)n(-c2cn(C)nc2C)c(=O)n4C)cc1Cl [Example 146.1, 8-(5-Chloro-6-methylamino-pyridin-3-yl)-1-(1,3-dimethyl-1H-pyrazol-4-yl)-3-methyl-1,3-dihydro-imidazo[4,5-c]quinolin-2-one]"
13.9 ×10⁻⁶ cm/s,34 nM,100 nM,25 nM,,"CNc1cc(-c2ccc3ncc4c(c3c2)n(-c2cn(C)nc2C)c(=O)n4C)cnc1COC [Example 159, 1-(1,3-Dimethyl-1H-pyrazol-4-yl)-8-(6-methoxymethyl-5-methylamino-pyridin-3-yl)-3-methyl-1,3-dihydro-imidazo[4,5-c]quinolin-2-one]"
15.8 ×10⁻⁶ cm/s,34 nM,468 nM,35 nM,,"CCOc1cc(-c2ccc3ncc4c(c3c2)n(-c2cn(C)nc2C)c(=O)n4C)cnc1COC [Example 197.1, 1-(1,3-Dimethyl-1H-pyrazol-4-yl)-8-(5-ethoxy-6-methoxymethyl-pyridin-3-yl)-3-methyl-1,3-dihydro-imidazo[4,5-c]quinolin-2-one]"
5.9 ×10⁻⁶ cm/s,12 nM,40 nM,14 nM,,"Cc1nn(C(C)C)cc1-n1c(=O)n(C)c2cnc3ccc(-c4cncc(C(C)(C)O)c4)cc3c21 [Example 215.1, 8-[5-(1-Hydroxy-1-methyl-ethyl)-pyridin-3-yl]-1-(1-isopropyl-3-methyl-1H-pyrazol-4-yl)-3-methyl-1,3-dihydro-imidazo[4,5-c]quinolin-2-one]"
35.5 ×10⁻⁶ cm/s,20 nM,119 nM,9 nM,,"CCn1cc(-n2c(=O)n(C)c3cnc4ccc(-c5cnc(OC)nc5OC)cc4c32)c(C)n1 [Example 234.1, 8-(2,4-Dimethoxy-pyrimidin-5-yl)-1-(1-ethyl-3-methyl-1H-pyrazol-4-yl)-3-methyl-1,3-dihydro-imidazo[4,5-c]quinolin-2-one]"
29.4 ×10⁻⁶ cm/s,3 nM,24 nM,7 nM,45 nM,"COc1ccc(-c2ccc3ncc4[nH]c(=O)n(-c5cc(C)nn5C)c4c3n2)cc1OC [Example 252, 8-(3,4-Dimethoxy-phenyl)-1-(2,5-dimethyl-2H-pyrazol-3-yl)-1,3-dihydro-1,3,5,9-tetraaza-cyclopenta[a]naphthalen-2-one]"
,4 nM,8 nM,5 nM,88 nM,"COc1ccc(-c2ccc3ncc4c(c3n2)n(-c2cc(C)nn2C)c(=O)n4C)cc1OC [Example 253, 8-(3,4-Dimethoxy-phenyl)-1-(2,5-dimethyl-2H-pyrazol-3-yl)-3-methyl-1,3-dihydro-1,3,5,9-tetraaza-cyclopenta[a]naphthalen-2-one]"
